Experimental data published in patent US9199959B2, “HIV replication inhibitor” (Shionogi & Co., Ltd., priority 2011, dated 2015).

Legend:
[1] = target: T1, CYP3A4 (Homo sapiens, UniProt P08684); assay: CYP inhibition assay, terfenedine hydroxylation; type: in vitro ADME; details: pooled human liver microsomes, probe terfenedine (hydroxylation), 1 μmol/L, pooled human hepatic microsome
T1 construct: enzyme, pooled human hepatic microsome 0.2 mg protein/mL; from tissue; host or cells: pooled human liver microsomes
Protocol: (§1) Using commercially available pooled human hepatic microsome, and employing, as markers, 7-ethoxyresorufin O-deethylation (CYP1A2), tolbutamide methyl-hydroxylation (CYP2C9), mephenytoin 4′-hydroxylation (CYP2C19), dextromethorphan O-demethylation (CYP2D6), and terfenedine hydroxylation (CYP3A4) as typical substrate metabolism reactions of human main five CYP enzyme forms (CYP1A2, 2C9, 2C19, 2D6, 3A4), an inhibitory degree of each metabolite production amount by a test compound was assessed.
(§2) The reaction conditions were as follows: substrate, 0.5 μmol/L ethoxyresorufin (CYP1A2), 100 μmol/L tolbutamide (CYP2C9), 50 μmol/L S-mephenytoin (CYP2C19), 5 μmol/L dextromethorphan (CYP2D6), 1 μmol/L terfenedine (CYP3A4); reaction time, 15 minutes; reaction temperature, 37° C.; enzyme, pooled human hepatic microsome 0.2 mg protein/mL; test drug concentration, 1, 5, 10, 20 μmol/L (four points).
(§3) Each five kinds of substrates, human hepatic microsome, and a test drug in 50 mmol/L Hepes buffer as a reaction solution was added to a 96-well plate as the composition as described above, NADPH, as a cofactor was added to initiate metabolism reactions as markers and, after the incubation at 37° C. for 15 minutes, a methanol/acetonitrile=1/1 (v/v) solution was added to stop the reaction. After the centrifugation at 3000 rpm for 15 minutes, resorufin (CYP1A2 metabolite) in the supernatant was quantified by a fluorescent multilabel counter and tolbutamide hydroxide (CYP2C9 metabolite), mephenytoin 4′ hydroxide (CYP2C19 metabolite), dextrorphan (CYP2D6 metabolite), and terfenadine alcohol (CYP3A4 metabolite) were quantified by LC/MS/MS.
(§4) A reaction system containing only DMSO which is a solvent for dissolving a drug was adopted as a control (100%), and the remaining activity (%) was calculated, then IC50 was calculated by reverse presumption with a logistic model using a concentration and an inhibition rate.

[2] = target: T2, CYP2C19 (Homo sapiens, UniProt P33261); assay: CYP inhibition assay, mephenytoin 4'-hydroxylation; type: in vitro ADME; details: pooled human liver microsomes, probe S-mephenytoin (4'-hydroxylation), 50 μmol/L, pooled human hepatic microsome
T2 construct: enzyme, pooled human hepatic microsome 0.2 mg protein/mL; from tissue; host or cells: pooled human liver microsomes
Protocol: as §1, §2, §3, §4

[3] = target: T3, CYP2D6 (Homo sapiens, UniProt P10635); assay: CYP inhibition assay, dextromethorphan O-demethylation; type: in vitro ADME; details: pooled human liver microsomes, probe dextromethorphan (O-demethylation), 5 μmol/L, pooled human hepatic microsome
T3 construct: enzyme, pooled human hepatic microsome 0.2 mg protein/mL; from tissue; host or cells: pooled human liver microsomes
Protocol: as §1, §2, §3, §4

[4] = Solubility test, 1% DMSO addition, artificial intestinal juice pH 6.8; type: physicochemical; details: artificial intestinal juice with 1% DMSO, fassgf or other biorelevant, kinetic from dmso stock; pH 6.8, 1% DMSO addition, 16 hours at 25° C.
Protocol: The solubility of each compound was determined under 1% DMSO addition conditions. A 10 mmol/L solution of the compound was prepared with DMSO, and 6 μL of the solution was added to 594 μL of an artificial intestinal juice (water and a 118 mL solution of 0.2 mol/L NaOH reagent are added to 250 mL of 0.2 mol/L potassium dihydrogen phosphate reagent to reach 1000 mL) with a pH of 6.8. The mixture is left standing for 16 hours at 25° C., and the mixture is vacuum-filtered. The filtrate is two-fold diluted with methanol/water=1/1 (v/v), and the compound concentration in the filtrate is measured with HPLC or LC/MS/MS by the absolute calibration method.

[5] = target: T4, CYP1A2 (Homo sapiens, UniProt P05177); assay: CYP inhibition assay, 7-ethoxyresorufin O-deethylation; type: in vitro ADME; details: pooled human liver microsomes, probe 7-ethoxyresorufin (O-deethylation), 0.5 μmol/L, pooled human hepatic microsome
T4 construct: enzyme, pooled human hepatic microsome 0.2 mg protein/mL; from tissue; host or cells: pooled human liver microsomes
T4 sequence (P05177 1-516): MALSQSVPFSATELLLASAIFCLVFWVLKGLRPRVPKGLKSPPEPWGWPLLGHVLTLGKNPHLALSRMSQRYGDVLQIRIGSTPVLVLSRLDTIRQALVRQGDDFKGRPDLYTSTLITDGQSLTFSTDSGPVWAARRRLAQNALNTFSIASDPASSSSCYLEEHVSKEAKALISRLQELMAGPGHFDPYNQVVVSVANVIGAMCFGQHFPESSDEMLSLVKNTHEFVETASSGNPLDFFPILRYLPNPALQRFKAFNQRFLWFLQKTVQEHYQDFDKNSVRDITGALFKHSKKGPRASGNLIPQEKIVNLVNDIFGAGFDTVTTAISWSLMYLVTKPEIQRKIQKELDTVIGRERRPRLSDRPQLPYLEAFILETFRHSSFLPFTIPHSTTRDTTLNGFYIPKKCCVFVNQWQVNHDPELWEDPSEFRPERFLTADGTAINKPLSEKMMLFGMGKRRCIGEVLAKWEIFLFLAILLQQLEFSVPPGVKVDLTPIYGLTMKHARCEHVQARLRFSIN
Protocol: as §1, §2, §3, §4

[6] = test system: HIV (HTLV-III B strain); assay: HIV replication inhibition assay (MTT, MT-4 cells); type: cell-based; details: Human immunodeficiency virus 1, MT4, 96 h, four days culture, concentration at which cell cytotoxicity by virus is inhibited 50%
Protocol: HIV (HTLV-III B strain) persistent infected human T cell strain Molt-4 clone 8 was cultured in 10% Fetal Bovine Serum-containing RPMI-1640 medium and the supernatant was filtrated, then the virus titer was measured and the solution was stored at −80° C. Each anti-human immunodeficiency virus active substance was diluted with the above cultured medium to the designated concentration, which was dispensed into 96 well micro plate by 50 μL. Next, a MT-4 cell suspended liquid was dispensed by 100 μL (2.5×10^4 cells), then the above HIV-containing supernatant diluted with the above cultured medium was added thereto by 50 μL (60 pfu (plaque forming unit)).
The obtained mixture was cultured at 37° C. in CO2 incubator for four days, then 3-(4,5-dimehylthiazole-2-yl)-2,5-diphenyltetrazolynium bromide (MTT) 5 mg/mL in PBS was added to each well by 30 μL, followed by 1 hr-cultivation. In this step, as formazan was precipitated by reduction of MTT in living cells, the cell supernatant was removed from all well by 150 μL, then a 150 μL of solution (10% Triton X-100 and […]) was added thereto, followed by shaking with a plate mixer, to elute formazan. The formazan was measured with a microreader at OD: 560 nm and 690 nm (wavelength) and the result was compared with the reference. EC50 means the compound concentration at which cell cytotoxicity by virus is inhibited 50%.

T2 sequence (P33261 whole entry): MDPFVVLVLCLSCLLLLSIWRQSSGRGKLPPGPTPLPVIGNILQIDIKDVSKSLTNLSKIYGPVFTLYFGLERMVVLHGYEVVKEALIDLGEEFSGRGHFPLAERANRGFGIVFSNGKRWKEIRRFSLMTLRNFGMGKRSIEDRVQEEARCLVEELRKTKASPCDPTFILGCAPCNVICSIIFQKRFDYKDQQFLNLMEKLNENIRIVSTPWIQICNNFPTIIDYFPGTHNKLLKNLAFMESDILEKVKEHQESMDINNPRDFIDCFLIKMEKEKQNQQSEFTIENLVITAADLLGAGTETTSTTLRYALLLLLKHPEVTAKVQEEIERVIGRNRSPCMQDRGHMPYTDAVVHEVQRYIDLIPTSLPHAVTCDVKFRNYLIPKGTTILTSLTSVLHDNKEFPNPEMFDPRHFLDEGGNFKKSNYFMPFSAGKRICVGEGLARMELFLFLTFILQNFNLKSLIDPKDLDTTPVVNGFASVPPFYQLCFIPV
T3 sequence (P10635 whole entry): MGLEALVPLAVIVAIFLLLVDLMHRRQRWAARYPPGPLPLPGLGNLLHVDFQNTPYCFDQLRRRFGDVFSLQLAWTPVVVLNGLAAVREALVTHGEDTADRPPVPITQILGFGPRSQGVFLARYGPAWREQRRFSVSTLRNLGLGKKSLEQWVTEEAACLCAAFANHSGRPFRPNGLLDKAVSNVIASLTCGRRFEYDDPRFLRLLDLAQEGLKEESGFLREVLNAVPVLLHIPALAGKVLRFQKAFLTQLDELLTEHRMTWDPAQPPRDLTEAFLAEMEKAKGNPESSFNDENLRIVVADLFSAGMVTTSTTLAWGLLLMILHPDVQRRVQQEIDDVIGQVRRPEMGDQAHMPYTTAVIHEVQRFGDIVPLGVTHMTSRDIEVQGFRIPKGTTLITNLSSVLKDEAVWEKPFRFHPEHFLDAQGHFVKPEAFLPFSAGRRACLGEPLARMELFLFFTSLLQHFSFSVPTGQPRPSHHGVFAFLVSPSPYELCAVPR
T1 sequence (P08684 whole entry): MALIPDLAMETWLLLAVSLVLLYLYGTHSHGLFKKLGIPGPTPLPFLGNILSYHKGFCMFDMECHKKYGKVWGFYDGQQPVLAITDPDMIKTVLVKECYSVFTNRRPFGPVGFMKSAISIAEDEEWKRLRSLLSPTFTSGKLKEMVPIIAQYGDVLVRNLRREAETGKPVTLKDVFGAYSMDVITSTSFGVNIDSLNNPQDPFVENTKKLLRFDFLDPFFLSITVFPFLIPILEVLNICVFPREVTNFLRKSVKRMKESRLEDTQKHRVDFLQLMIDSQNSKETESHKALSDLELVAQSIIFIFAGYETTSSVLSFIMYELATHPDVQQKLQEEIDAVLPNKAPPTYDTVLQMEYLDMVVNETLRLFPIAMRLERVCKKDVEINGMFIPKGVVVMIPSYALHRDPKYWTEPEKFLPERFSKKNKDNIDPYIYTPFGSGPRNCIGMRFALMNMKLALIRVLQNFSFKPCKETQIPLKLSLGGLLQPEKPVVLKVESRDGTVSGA

Q: Which IC50 at 15 min [1] does the source give for `Cc1ccc(-c2c(N)cc(C(OC(C)(C)C)C(=O)O)c(-c3ccc(C)c(C)c3)c2C)cc1C` (stereo not shown) [Compound I-2] here?
A: The IC50 at 15 min was ≥ 20000 nM.

Q: What about the IC50 at 15 min [2] of the same compound?
A: The IC50 at 15 min was ≥ 20000 nM.

Q: What about the IC50 at 15 min [3] of the same compound?
A: The IC50 at 15 min was ≥ 20000 nM.

Q: What about the solubility at 16 h [4] of the same compound?
A: The solubility at 16 h was ≥ 50 µM.

Q: And the IC50 at 15 min [5]?
A: The IC50 at 15 min was ≥ 20000 nM.

Q: With `CNc1c(C)c(C(OC(C)(C)C)C(=O)O)c(-c2ccc(C)c(C)c2)c(C)c1-c1ccc(C)c(C)c1` (stereo not shown) [Compound I-14] as the compound, how does the EC50 [6] read?
A: Its EC50 is 19 nM.

Q: Which EC50 [6] does the source give for `Cc1cc(NS(=O)(=O)CC2CCCCC2)c(C)c(C(OC(C)(C)C)C(=O)O)c1-c1ccc2c(c1C)CCCO2` (stereo not shown) [Compound I-150] here?
A: The EC50 was 2.3 nM.

Q: With `COC(=O)Nc1cc(C(OC(C)(C)C)C(=O)O)c(-c2ccc(C)c(C)c2)c(C)c1-c1ccc(C)c(C)c1` (stereo not shown) [Compound I-5] as the compound, how does the IC50 at 15 min [1] read?
A: Its IC50 at 15 min is ≥ 20000 nM.

Q: And the IC50 at 15 min [2]?
A: The IC50 at 15 min was ≥ 20000 nM.

Q: And the IC50 at 15 min [3]?
A: The IC50 at 15 min was ≥ 20000 nM.

Q: And the IC50 at 15 min [5]?
A: Its IC50 at 15 min is ≥ 20000 nM.

Q: For `COc1ccc(-c2c(C)cc(NS(=O)(=O)CC3CCCCC3)c(C)c2C(OC(C)(C)C)C(=O)O)cc1` (stereo not shown) [Compound I-285], which EC50 [6] is on record?
A: Its EC50 is 4.5 nM.

Q: Which EC50 [6] does the source give for `Cc1cc(NS(=O)(=O)c2cccc(Cl)c2Cl)c(C)c(C(OC(C)(C)C)C(=O)O)c1-c1ccc2c(c1)CCCO2` (stereo not shown) [Compound I-121] here?
A: Its EC50 is 5.2 nM.

Q: With `Cc1c(-c2c(C)c(C)c(NS(=O)(=O)c3cccc4ccccc34)c(C)c2[C@H](OC(C)(C)C)C(=O)O)ccc2c1CCCO2` [Compound I-145] as the compound, how does the EC50 [6] read?
A: The EC50 was 1.2 nM.

Q: With `Cc1ccc(-c2c(C)c(-c3ccc(C)c(C)c3)c3c(c2[C@H](OC(C)(C)C)C(=O)O)CCC(=O)N3C)cc1C` [II-42] as the compound, how does the EC50 [6] read?
A: Its EC50 is 4.4 nM.

Q: With `Cc1ccc(-c2c(C)c(C3=CCCCCC3)c(C(OC(C)(C)C)C(=O)O)c(C)c2NS(C)(=O)=O)cc1C` (stereo not shown) [Compound I-168] as the compound, how does the EC50 [6] read?
A: Its EC50 is 3.9 nM.

Q: For `Cc1ccc(-c2c(C)c(-c3ccc(C)c(C)c3)c(C(OC(C)(C)C)C(=O)O)c(C)c2N)cc1C` (stereo not shown) [Compound I-7], which IC50 at 15 min [1] is on record?
A: The IC50 at 15 min was ≥ 20000 nM.

Q: And the IC50 at 15 min [2]?
A: The IC50 at 15 min was ≥ 20000 nM.

Q: And the IC50 at 15 min [3]?
A: Its IC50 at 15 min is ≥ 20000 nM.

Q: And the IC50 at 15 min [5]?
A: Its IC50 at 15 min is ≥ 20000 nM.

Q: What about the EC50 [6] of the same compound?
A: The EC50 was 18 nM.

Q: For `Cc1cc(-c2c(C)c(-c3cc(F)c4c(c3C)CCCO4)c([C@H](OC(C)(C)C)C(=O)O)c(C)c2NS(C)(=O)=O)ccc1F` [Compound I-310], which EC50 [6] is on record?
A: The EC50 was 4 nM.

Q: For `CC(=O)Nc1c(Br)c(C(OC(C)(C)C)C(=O)O)c(-c2ccc(C)c(C)c2)c(C)c1-c1ccc(C)c(C)c1` (stereo not shown) [Compound I-4], which IC50 at 15 min [1] is on record?
A: The IC50 at 15 min was ≥ 20000 nM.

Q: And the IC50 at 15 min [2]?
A: The IC50 at 15 min was ≥ 20000 nM.

Q: What about the IC50 at 15 min [3] of the same compound?
A: The IC50 at 15 min was ≥ 20000 nM.

Q: And the solubility at 16 h [4]?
A: Its solubility at 16 h is ≥ 50 µM.

Q: What about the IC50 at 15 min [5] of the same compound?
A: The IC50 at 15 min was ≥ 20000 nM.

Q: What about the EC50 [6] of the same compound?
A: Its EC50 is 13 nM.
